Test results as given in ChEMBL document CHEMBL1201862, “PubChem BioAssay data set” (2004).
Activity calls are given as the source filed them.

Assays:
[1] = target: Paired box protein Pax-8 (Homo sapiens, UniProt Q06710); assay: inhibitors of PAX8-driven TPO luciferase reporter, dose response, RMG-I cells, cherry-pick (AID 687027); type: functional, cell-based;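 note: luciferase reporter driven by Pax8 target thyroperoxidase promoter measured by SteadyGlo luminescence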
[2] = NIH:OVCAR-3 ovarian cancer cell cytotoxicity, dose response, PAX8 inhibitor project, plate reader, dry powder samples (AID 743044); type: functional, cell-based
[3] = cytotoxicity in OVCAR8 ovarian cancer cells, dose response, PAX8 project, cell-based, plate reader, dry powder samples (AID 743197); type: functional; conditions: OVCAR-8
[4] = P. falciparum late gametocyte killing, dose response, luminescence (AID 1117278); type: functional, cell-based;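 note: gametocytes exposed to compound for 24 hours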
[5] = Jurkat T cell cytotoxicity, dose response, cytotoxicity control for P. falciparum gametocyte viability project, luminescence (AID 1117277); type: functional, cell-based;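 note: potency reflects loss of cellular ATP meaning fewer viable cells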
[6] = target: Prothrombin (Homo sapiens, UniProt P00734); assay: Thrombin 1536 HTS Dose Response Confirmation. [Related pubchem assays: 1046 (Thrombin 1536 HTS; hits were confirmed in this assay)]; type: functional
[7] = target: T1, Sentrin-specific protease 8 (Homo sapiens, UniProt Q96LD8); type: functional
T1 sequence (Q96LD8 whole entry): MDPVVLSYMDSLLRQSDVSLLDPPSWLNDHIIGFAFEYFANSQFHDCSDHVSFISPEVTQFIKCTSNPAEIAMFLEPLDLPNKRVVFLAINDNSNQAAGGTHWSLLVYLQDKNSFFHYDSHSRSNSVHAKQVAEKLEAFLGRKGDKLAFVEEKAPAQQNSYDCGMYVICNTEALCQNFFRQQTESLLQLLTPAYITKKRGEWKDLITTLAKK

[8] = target: T2, Leucine aminopeptidase (Plasmodium falciparum 3D7, UniProt Q8IL11); assay: P. falciparum M17LAP inhibitors, primary screen, biochemical, fluorogenic H-Leu-NHMec substrate, 1536-well (AID 1619); type: functional
T2 sequence (Q8IL11 whole entry): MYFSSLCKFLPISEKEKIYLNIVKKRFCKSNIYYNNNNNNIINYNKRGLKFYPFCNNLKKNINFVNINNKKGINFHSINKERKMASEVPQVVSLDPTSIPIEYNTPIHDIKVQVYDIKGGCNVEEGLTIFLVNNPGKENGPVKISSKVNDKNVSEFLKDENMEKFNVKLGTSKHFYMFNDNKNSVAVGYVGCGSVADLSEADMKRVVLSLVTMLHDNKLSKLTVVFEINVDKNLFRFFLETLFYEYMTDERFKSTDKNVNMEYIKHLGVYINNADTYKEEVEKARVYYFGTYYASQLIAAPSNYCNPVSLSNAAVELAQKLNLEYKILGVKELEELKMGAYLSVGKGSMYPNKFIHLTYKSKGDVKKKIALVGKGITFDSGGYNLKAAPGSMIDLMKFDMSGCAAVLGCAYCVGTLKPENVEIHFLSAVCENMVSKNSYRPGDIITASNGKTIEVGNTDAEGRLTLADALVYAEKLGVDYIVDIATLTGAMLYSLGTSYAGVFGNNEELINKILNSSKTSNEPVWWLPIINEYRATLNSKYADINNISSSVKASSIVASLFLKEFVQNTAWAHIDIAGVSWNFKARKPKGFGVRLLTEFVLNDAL

[9] = target: T3, Microphthalmia-associated transcription factor (Homo sapiens, UniProt O75030); assay: TRPM1 promoter luciferase signal decrease, dose response, MITF inhibitor project, cell-based, SK-MEL-5, cherry-picked, set 3 (AID 493073); type: functional
T3 sequence (O75030 whole entry): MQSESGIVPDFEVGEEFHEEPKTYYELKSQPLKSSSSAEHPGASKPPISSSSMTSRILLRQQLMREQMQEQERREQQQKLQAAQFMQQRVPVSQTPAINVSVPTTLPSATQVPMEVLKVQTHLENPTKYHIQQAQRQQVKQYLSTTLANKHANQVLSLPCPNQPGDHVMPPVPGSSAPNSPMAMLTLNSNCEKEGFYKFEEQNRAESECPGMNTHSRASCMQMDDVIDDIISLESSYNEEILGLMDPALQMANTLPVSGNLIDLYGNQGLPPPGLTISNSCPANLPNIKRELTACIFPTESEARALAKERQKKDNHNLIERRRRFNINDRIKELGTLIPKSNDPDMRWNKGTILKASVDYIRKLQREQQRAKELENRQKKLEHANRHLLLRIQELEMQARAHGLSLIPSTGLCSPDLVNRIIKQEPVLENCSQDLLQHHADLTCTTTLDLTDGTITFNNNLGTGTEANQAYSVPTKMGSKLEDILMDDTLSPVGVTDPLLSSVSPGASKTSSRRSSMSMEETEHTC

[10] = target: T4, Fatty acid synthase (Homo sapiens, UniProt P49327); assay: FAS thioesterase domain inhibitors, dose response, biochemical, endpoint fluorescence intensity, uHTS hits (AID 624327); type: functional;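 note: fluorescence from hydrolysis of an O-methyl fluorescein acyl ester substrate by the enzyme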
[11] = target: T4, Fatty acid synthase; assay: FAS thioesterase domain inhibitors, dose response, biochemical, kinetic fluorescence intensity (AID 624326); type: functional;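 note: rate of fluorescence rise from hydrolysis of a fluorogenic O-methyl fluorescein ester substrate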
[12] = target: T5, COUP transcription factor 2 (Homo sapiens, UniProt P24468); assay: Luminescence-based cell-based high throughput dose response assay to identify inhibitors of COUP-TFII (NR2F2).; type: functional;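 note: HEK293 cells transiently cotransfected with COUP-TFII expression vector and reporter; luciferase reporter luminescence driven by COUP-TFII from the pX2-168 reporter plasmid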
T5 sequence (P24468 whole entry): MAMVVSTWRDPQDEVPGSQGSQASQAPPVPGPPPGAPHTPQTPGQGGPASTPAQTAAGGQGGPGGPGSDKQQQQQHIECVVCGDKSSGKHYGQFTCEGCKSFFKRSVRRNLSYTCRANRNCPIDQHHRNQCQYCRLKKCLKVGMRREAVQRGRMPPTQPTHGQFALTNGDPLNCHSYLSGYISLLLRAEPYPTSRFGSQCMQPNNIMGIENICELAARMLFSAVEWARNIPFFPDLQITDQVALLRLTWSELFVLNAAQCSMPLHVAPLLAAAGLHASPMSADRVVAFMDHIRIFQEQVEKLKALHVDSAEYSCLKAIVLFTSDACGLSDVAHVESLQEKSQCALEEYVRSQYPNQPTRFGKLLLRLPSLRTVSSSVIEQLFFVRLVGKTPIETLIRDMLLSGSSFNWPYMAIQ

[13] = cytotoxicity in HPDE-C7 cells, cell-based, fluorescence, HTS (AID 430); type: functional; conditions: Homo sapiens
[14] = cytotoxicity in KRAS-transformed pancreatic duct cells, primary screen, cell-based, fluorescence, HTS (AID 431); type: functional; conditions: Homo sapiens;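 note: cell line used: HPDE-C7K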
[15] = target: T6, Coagulation factor XII (Homo sapiens, UniProt P00748); assay: FXIIa inhibitor potency, concentration-response, biochemical (AID 716); type: functional
T6 sequence (P00748 whole entry): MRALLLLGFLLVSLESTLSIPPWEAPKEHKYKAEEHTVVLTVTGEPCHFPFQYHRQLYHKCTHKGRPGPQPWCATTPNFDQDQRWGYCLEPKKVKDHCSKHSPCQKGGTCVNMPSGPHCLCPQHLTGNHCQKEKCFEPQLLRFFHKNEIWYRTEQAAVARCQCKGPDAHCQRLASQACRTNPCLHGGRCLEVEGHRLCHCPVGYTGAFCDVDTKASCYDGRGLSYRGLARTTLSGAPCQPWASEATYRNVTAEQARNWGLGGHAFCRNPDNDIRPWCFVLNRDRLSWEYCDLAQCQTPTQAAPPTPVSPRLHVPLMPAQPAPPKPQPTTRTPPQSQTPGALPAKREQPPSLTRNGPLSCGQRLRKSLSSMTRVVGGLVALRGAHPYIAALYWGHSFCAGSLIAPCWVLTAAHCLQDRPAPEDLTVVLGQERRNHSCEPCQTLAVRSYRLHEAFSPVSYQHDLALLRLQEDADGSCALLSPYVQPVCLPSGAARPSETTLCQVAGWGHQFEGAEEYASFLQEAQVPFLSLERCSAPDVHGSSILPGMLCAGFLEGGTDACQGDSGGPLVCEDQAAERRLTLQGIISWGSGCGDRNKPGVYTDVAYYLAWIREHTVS

[16] = target: DNA dC->dU-editing enzyme APOBEC-3A (Homo sapiens, UniProt P31941); assay: Dose Response confirmation of small molecule APOBEC3A DNA Deaminase Inhibitors via a fluorescence-based single-stranded DNA deaminase assay. [Related pubchem assays (depositor defined):AID493011, AID493024]; type: functional
[17] = target: DNA dC->dU-editing enzyme APOBEC-3G (Homo sapiens, UniProt Q9HC16); type: functional;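 note: Dose-response counterscreen measuring inhibition of APOBEC3G DNA deaminase activity, run while confirming APOBEC3A inhibitors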
[18] = THP-1 cell cytotoxicity, dose response, cytotoxicity control for non-replicating M. tuberculosis project (AID 489025); type: functional
[19] = HepG2 cell cytotoxicity, dose response, cytotoxicity control for non-replicating M. tuberculosis project (AID 489018); type: functional; conditions: Mycobacterium tuberculosis
[20] = Vero E6 cell cytotoxicity, dose response, cytotoxicity control for non-replicating M. tuberculosis project, secondary assay (AID 492998); type: functional, VeroE6; conditions: Vero C1008
[21] = cells; type: functional
[22] = target: Luciferin 4-monooxygenase (Photinus pyralis, UniProt P08659); assay: Counter Screen for Luciferase-based Assay Positives. [Related pubchem assays: 620, 618, 411 ]
[23] = system: HT-1080; assay: cytotoxicity in HT1080 fibrosarcoma cells, cell-based, fluorescence readout (AID 620); type: functional; conditions: Homo sapiens
[24] = target: T7, Caspase-6 (Homo sapiens, UniProt P55212); assay: human caspase-6 inhibitors, dose response, biochemical, VEID-R110 fluorescence, cherry-pick (AID 720632)
T7 sequence (P55212 whole entry): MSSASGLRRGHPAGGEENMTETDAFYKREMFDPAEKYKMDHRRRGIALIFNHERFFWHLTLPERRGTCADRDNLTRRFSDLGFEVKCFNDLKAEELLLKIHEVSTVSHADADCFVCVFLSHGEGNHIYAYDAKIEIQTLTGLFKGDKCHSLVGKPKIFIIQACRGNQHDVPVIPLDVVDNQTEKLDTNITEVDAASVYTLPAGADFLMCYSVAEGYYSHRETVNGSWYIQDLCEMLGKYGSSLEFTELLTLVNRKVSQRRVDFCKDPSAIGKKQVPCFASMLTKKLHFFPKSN

T4 sequence (P49327 whole entry, the tested form may be a part): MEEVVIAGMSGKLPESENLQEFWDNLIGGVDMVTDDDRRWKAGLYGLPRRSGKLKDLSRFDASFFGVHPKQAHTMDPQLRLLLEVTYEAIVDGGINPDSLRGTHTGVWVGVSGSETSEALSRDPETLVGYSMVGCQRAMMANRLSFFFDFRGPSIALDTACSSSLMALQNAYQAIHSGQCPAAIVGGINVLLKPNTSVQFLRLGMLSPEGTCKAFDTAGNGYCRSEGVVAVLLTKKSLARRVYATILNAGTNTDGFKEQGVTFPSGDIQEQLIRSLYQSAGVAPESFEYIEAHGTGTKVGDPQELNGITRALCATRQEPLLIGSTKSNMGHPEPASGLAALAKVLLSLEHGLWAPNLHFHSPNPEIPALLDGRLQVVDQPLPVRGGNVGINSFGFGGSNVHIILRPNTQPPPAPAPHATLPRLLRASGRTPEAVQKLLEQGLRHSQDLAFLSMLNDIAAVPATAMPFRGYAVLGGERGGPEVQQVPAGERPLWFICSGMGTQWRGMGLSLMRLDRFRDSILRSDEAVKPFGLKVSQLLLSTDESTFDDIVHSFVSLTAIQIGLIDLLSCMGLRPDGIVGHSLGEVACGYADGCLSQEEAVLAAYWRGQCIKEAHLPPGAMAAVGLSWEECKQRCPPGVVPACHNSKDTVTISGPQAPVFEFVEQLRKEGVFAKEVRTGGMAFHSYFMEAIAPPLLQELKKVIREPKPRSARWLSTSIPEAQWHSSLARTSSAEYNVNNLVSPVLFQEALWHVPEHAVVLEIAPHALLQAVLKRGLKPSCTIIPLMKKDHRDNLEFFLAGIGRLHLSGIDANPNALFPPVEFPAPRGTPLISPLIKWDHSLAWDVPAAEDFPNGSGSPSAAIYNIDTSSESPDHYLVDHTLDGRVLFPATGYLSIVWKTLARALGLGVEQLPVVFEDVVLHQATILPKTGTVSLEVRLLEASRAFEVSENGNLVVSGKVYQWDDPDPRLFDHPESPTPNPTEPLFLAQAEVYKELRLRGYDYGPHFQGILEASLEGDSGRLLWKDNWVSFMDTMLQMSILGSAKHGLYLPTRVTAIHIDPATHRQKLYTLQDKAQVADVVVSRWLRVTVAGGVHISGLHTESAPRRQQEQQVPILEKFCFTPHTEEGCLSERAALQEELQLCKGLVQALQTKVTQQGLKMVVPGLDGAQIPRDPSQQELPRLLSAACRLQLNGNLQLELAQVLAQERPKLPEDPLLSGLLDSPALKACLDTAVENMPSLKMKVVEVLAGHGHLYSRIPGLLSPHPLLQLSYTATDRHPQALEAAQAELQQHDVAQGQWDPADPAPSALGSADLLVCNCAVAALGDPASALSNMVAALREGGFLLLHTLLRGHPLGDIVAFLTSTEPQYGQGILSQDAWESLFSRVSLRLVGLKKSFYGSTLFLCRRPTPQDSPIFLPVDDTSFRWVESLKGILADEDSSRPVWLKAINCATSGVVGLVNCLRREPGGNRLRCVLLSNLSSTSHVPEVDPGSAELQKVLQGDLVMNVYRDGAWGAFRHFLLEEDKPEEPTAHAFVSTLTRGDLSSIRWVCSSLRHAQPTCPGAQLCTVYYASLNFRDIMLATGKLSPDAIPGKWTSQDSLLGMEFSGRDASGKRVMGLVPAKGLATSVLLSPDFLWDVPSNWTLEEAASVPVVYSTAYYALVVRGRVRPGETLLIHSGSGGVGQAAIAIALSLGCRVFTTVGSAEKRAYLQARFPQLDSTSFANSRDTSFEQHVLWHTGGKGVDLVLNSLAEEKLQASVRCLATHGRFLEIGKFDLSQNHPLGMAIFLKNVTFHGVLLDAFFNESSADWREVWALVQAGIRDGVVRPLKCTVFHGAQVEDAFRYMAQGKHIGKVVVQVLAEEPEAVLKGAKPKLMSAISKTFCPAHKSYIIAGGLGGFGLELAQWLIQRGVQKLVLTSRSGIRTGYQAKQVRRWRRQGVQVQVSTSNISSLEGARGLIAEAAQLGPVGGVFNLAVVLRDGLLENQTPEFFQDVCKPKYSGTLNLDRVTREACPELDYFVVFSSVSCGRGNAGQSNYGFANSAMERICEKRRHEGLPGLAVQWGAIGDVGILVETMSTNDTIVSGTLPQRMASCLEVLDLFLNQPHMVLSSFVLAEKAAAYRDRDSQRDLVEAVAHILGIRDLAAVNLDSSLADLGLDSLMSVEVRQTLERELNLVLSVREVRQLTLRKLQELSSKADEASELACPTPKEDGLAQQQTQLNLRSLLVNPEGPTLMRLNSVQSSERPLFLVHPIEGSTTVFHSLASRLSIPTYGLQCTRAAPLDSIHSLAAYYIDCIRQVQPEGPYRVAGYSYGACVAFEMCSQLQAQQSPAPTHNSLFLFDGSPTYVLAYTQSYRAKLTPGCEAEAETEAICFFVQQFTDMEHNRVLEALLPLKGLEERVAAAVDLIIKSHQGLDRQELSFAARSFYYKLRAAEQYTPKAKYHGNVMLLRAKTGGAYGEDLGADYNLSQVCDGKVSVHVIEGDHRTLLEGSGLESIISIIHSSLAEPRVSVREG
Sequence of DNA dC->dU-editing enzyme APOBEC-3G (Q9HC16 whole entry): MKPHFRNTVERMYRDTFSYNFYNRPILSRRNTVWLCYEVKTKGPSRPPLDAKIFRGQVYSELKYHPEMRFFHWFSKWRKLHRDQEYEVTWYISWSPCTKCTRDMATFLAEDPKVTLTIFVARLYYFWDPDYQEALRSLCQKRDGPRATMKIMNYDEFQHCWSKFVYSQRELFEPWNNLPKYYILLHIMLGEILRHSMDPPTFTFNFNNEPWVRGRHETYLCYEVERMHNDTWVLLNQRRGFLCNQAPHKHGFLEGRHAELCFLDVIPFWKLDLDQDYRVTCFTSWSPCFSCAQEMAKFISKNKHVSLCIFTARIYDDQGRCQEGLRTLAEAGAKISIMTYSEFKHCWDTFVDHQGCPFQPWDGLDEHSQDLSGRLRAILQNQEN
Sequence of Paired box protein Pax-8 (Q06710 whole entry): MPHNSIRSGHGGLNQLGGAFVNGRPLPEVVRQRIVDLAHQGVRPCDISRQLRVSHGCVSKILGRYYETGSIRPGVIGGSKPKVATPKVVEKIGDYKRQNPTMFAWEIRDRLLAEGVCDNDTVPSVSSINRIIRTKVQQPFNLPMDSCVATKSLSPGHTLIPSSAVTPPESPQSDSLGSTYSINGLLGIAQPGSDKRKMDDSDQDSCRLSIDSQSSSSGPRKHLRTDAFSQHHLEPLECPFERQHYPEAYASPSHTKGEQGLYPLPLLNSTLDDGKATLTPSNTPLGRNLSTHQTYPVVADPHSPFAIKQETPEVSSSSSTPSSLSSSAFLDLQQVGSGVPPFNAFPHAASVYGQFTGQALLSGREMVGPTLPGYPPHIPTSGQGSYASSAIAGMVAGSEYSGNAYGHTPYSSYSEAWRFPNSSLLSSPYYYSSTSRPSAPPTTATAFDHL
Sequence of DNA dC->dU-editing enzyme APOBEC-3A (P31941 whole entry): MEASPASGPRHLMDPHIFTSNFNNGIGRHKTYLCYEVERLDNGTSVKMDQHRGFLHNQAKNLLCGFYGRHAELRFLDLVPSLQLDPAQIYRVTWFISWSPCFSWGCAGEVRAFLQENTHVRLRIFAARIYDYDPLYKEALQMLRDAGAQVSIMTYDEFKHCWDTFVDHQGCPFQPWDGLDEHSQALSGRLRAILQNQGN
Sequence of Luciferin 4-monooxygenase (P08659 whole entry): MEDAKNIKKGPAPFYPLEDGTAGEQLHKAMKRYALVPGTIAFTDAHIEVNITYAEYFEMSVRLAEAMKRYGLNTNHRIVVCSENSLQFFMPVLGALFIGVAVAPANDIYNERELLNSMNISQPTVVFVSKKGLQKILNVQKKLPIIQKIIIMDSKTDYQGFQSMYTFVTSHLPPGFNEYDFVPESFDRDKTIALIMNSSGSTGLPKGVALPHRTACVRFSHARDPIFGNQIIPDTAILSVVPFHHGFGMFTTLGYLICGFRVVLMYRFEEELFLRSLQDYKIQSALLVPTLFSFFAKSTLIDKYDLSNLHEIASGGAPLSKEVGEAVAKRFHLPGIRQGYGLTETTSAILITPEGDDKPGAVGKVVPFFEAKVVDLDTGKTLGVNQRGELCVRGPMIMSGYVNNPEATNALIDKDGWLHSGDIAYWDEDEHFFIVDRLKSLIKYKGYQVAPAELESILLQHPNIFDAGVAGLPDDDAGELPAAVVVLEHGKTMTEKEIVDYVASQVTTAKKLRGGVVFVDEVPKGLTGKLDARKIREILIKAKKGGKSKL

Cc1ccc(S(=O)(=O)Nc2ccc3c(c2)C(=O)N([C@H](C)CO)C[C@@H](C)[C@H](CN(C)C(=O)Nc2cccc4ccccc24)OCCCC[C@@H](C)O3)cc1
AC50 [1]: 5.78 µM (active) | AC50 [2]: 42.1 µM (active) | AC50 [3]: > 70 µM (inactive)

CC(=O)C[C@@H](O)CC(=O)[C@H]1OC(=O)CC/C=C\Cc2ccccc21
IC50 [4]: > 109 µM (inactive) | IC50 [5]: > 83.3 µM (inactive)

CN(C)c1ccc(NC(=O)c2ccc(Cn3cc([N+](=O)[O-])cn3)cc2)cc1
IC50 [6]: > 50 µM (not active) | IC50 [7]: 23.2 µM (active)

CC(C)(C)c1ccc(/C=N/Nc2ccc(C(=O)O)cc2)cc1
IC50 [8]: 13.3 µM (active) | AC50 [9]: 6.03 µM (active) | IC50 [10]: 7.49 µM (active) | IC50 [11]: 8.76 µM (active) | IC50 [12]: > 9.49 µM (active)

CC(C)CNC(=O)CCCc1ccccc1
IC50 [4]: > 109 µM (inactive) | IC50 [5]: > 83.4 µM (inactive)

O=C(CSc1nnc2c3c4c(sc3ncn12)CCCC4)NCc1ccco1
EC50 [13]: > 20 µM (not active) | EC50 [14]: 14.5 µM (active)

CCn1cc(C(=O)N2CCc3ccccc32)c(=O)c2cc(S(=O)(=O)N3CCOCC3)ccc21
EC50 [13]: > 20 µM (not active) | EC50 [14]: > 20 µM (not active)

CC(=O)NCC(=O)OCC(=O)Nc1ccc(C(C)=O)cc1
IC50 [15]: > 50 µM (inactive)

CN1CCCN(S(=O)(=O)c2ccccc2)CC1
IC50 [16]: 4.85 µM (active) | IC50 [17]: 5.93 µM (active)

Oc1nc(-c2ccccn2)nc2ccccc12
CC50 [18]: > 40 µM (active) | CC50 [19]: > 20 µM (active) | CC50 [20]: 19.6 µM (active) | IC50 [21]: 3.56 µM (active)

COc1ccc(-c2cn3nc4c(nc3n2)CCCC4)cc1
EC50 [22]: 0.46 µM (active) | EC50 [23]: > 50 µM (not active)

CCOc1cc(N2CCOCC2)c(OCC)cc1NS(=O)(=O)c1cc(NC(C)=O)ccc1OC
AC50 [24]: 34.5 µM (active)

CC(=O)N1CCc2cc(Br)cc(S(=O)(=O)N3CCC(C(=O)O)CC3)c21
AC50 [24]: 30.4 µM (active)
